Results published in ChEMBL document CHEMBL3046147, “Synthesis and Herbicidal Activity of 1-Arylalkyl-3-pyrrolin-2-one Derivatives” (J Pestic Sci, 2000).
Activity calls are given as the source filed them. The rule behind the calls is not given here.

Experiments:
[1] = tested on: Echinochloa oryzicola; assay: Herbicidal activity against Echinochloa oryzicola under greenhouse condition assessed as growth inhibition at 1000 g /ha measured after 33 days; assay type: functional, organism-based
[2] = tested on: Echinochloa oryzicola; assay: Herbicidal activity against Echinochloa oryzicola under greenhouse condition assessed as growth inhibition at 1000 g /ha measured after 42 days; assay type: functional, organism-based
[3] = tested on: Echinochloa oryzicola; assay: Herbicidal activity against Echinochloa oryzicola under greenhouse condition assessed as growth inhibition at 250 g /ha measured after 13 days; assay type: functional, organism-based
[4] = tested on: Echinochloa oryzicola; assay: Herbicidal activity against Echinochloa oryzicola grown in water-drained pot under greenhouse condition assessed as growth inhibition at 250 g /ha measured after 6 days; assay type: functional, organism-based
[5] = tested on: Echinochloa oryzicola; assay: Herbicidal activity against Echinochloa oryzicola under greenhouse condition assessed as growth inhibition at 1000 g /ha measured after 6 days; assay type: functional, organism-based
[6] = tested on: Echinochloa oryzicola; assay: Herbicidal activity against Echinochloa oryzicola under greenhouse condition assessed as growth inhibition at 250 g /ha measured after 33 days; assay type: functional, organism-based
[7] = tested on: Echinochloa oryzicola; assay: Herbicidal activity against Echinochloa oryzicola grown in water-drained pot under greenhouse condition assessed as growth inhibition at 250 g /ha measured after 20 days; assay type: functional, organism-based
[8] = tested on: Echinochloa oryzicola; assay: Herbicidal activity against Echinochloa oryzicola grown in water-drained pot under greenhouse condition assessed as growth inhibition at 250 g /ha measured after 33 days; assay type: functional, organism-based
[9] = tested on: Echinochloa oryzicola; assay: Herbicidal activity against Echinochloa oryzicola under greenhouse condition assessed as growth inhibition at 250 g /ha measured after 20 days; assay type: functional, organism-based
[10] = tested on: Echinochloa oryzicola; assay: Herbicidal activity against Echinochloa oryzicola under greenhouse condition assessed as time duration of residual effect at 250 g /ha; assay type: functional
[11] = tested on: Echinochloa oryzicola; assay: Herbicidal activity against Echinochloa oryzicola grown in water-drained pot under greenhouse condition assessed as growth inhibition at 1000 g /ha measured after 33 days; assay type: functional, organism-based
[12] = tested on: Echinochloa oryzicola; assay: Herbicidal activity against Echinochloa oryzicola under greenhouse condition assessed as growth inhibition at 250 g /ha measured after 6 days; assay type: functional, organism-based
[13] = tested on: Echinochloa oryzicola; assay: Herbicidal activity against Echinochloa oryzicola grown in water-drained pot under greenhouse condition assessed as growth inhibition at 250 g /ha measured after 13 days; assay type: functional, organism-based
[14] = tested on: Echinochloa oryzicola; assay: Herbicidal activity against Echinochloa oryzicola grown in water-drained pot under greenhouse condition assessed as growth inhibition at 1000 g /ha measured after 20 days; assay type: functional, organism-based
[15] = tested on: Echinochloa oryzicola; assay: Herbicidal activity against Echinochloa oryzicola grown in water-drained pot under greenhouse condition assessed as time duration of residual effect at 1000 g /ha; assay type: functional
[16] = tested on: Echinochloa oryzicola; assay: Herbicidal activity against Echinochloa oryzicola under greenhouse condition assessed as growth inhibition at 1000 g /ha measured after 13 days; assay type: functional, organism-based
[17] = tested on: Echinochloa oryzicola; assay: Herbicidal activity against Echinochloa oryzicola grown in water-drained pot under greenhouse condition assessed as growth inhibition at 1000 g /ha measured after 13 days; assay type: functional, organism-based
[18] = tested on: Echinochloa oryzicola; assay: Herbicidal activity against Echinochloa oryzicola under greenhouse condition assessed as growth inhibition at 1000 g /ha measured after 27 days; assay type: functional, organism-based
[19] = tested on: Echinochloa oryzicola; assay: Herbicidal activity against Echinochloa oryzicola grown in water-drained pot under greenhouse condition assessed as growth inhibition at 250 g /ha measured after 42 days; assay type: functional, organism-based
[20] = tested on: Echinochloa oryzicola; assay: Herbicidal activity against Echinochloa oryzicola under greenhouse condition assessed as growth inhibition at 250 g /ha measured after 27 days; assay type: functional, organism-based
[21] = tested on: Echinochloa oryzicola; assay: Herbicidal activity against Echinochloa oryzicola grown in water-drained pot under greenhouse condition assessed as growth inhibition at 250 g /ha measured after 27 days; assay type: functional, organism-based
[22] = tested on: Echinochloa oryzicola; assay: Herbicidal activity against Echinochloa oryzicola under greenhouse condition assessed as time duration of residual effect at 1000 g /ha; assay type: functional
[23] = tested on: Echinochloa oryzicola; assay: Herbicidal activity against Echinochloa oryzicola under greenhouse condition assessed as growth inhibition at 250 g /ha measured after 42 days; assay type: functional, organism-based
[24] = tested on: Echinochloa oryzicola; assay: Herbicidal activity against Echinochloa oryzicola grown in water-drained pot under greenhouse condition assessed as growth inhibition at 1000 g /ha measured after 6 days; assay type: functional, organism-based
[25] = tested on: Echinochloa oryzicola; assay: Herbicidal activity against Echinochloa oryzicola under greenhouse condition assessed as growth inhibition at 1000 g /ha measured after 20 days; assay type: functional, organism-based
[26] = tested on: Echinochloa oryzicola; assay: Herbicidal activity against Echinochloa oryzicola grown in water-drained pot under greenhouse condition assessed as growth inhibition at 1000 g /ha measured after 42 days; assay type: functional, organism-based
[27] = tested on: Echinochloa oryzicola; assay: Herbicidal activity against Echinochloa oryzicola grown in water-drained pot under greenhouse condition assessed as time duration of residual effect at 250 g /ha; assay type: functional
[28] = tested on: Echinochloa oryzicola; assay: Herbicidal activity against Echinochloa oryzicola grown in water-drained pot under greenhouse condition assessed as growth inhibition at 1000 g /ha measured after 27 days; assay type: functional, organism-based
[29] = tested on: Echinochloa oryzicola; assay: Herbicidal activity against Echinochloa oryzicola under greenhouse condition assessed as growth inhibition at 500 g /ha measured after 20 days; assay type: functional, organism-based
[30] = tested on: Echinochloa oryzicola; assay: Herbicidal activity against Echinochloa oryzicola under greenhouse condition assessed as growth inhibition at 125 g /ha measured after 20 days; assay type: functional, organism-based
[31] = tested on: Echinochloa oryzicola; assay: Herbicidal activity against Echinochloa oryzicola grown in water-drained pot under greenhouse condition assessed as growth inhibition at 125 g /ha measured after 33 days; assay type: functional, organism-based
[32] = tested on: Echinochloa oryzicola; assay: Herbicidal activity against Echinochloa oryzicola grown in water-drained pot under greenhouse condition assessed as growth inhibition at 500 g /ha measured after 6 days; assay type: functional, organism-based
[33] = tested on: Echinochloa oryzicola; assay: Herbicidal activity against Echinochloa oryzicola under greenhouse condition assessed as growth inhibition at 500 g /ha measured after 42 days; assay type: functional, organism-based
[34] = tested on: Echinochloa oryzicola; assay: Herbicidal activity against Echinochloa oryzicola under greenhouse condition assessed as time duration of residual effect at 500 g /ha; assay type: functional
[35] = tested on: Echinochloa oryzicola; assay: Herbicidal activity against Echinochloa oryzicola grown in water-drained pot under greenhouse condition assessed as growth inhibition at 125 g /ha measured after 6 days; assay type: functional, organism-based
[36] = tested on: Echinochloa oryzicola; assay: Herbicidal activity against Echinochloa oryzicola grown in water-drained pot under greenhouse condition assessed as growth inhibition at 500 g /ha measured after 20 days; assay type: functional, organism-based
[37] = tested on: Echinochloa oryzicola; assay: Herbicidal activity against Echinochloa oryzicola under greenhouse condition assessed as growth inhibition at 500 g /ha measured after 33 days; assay type: functional, organism-based
[38] = tested on: Echinochloa oryzicola; assay: Herbicidal activity against Echinochloa oryzicola grown in water-drained pot under greenhouse condition assessed as growth inhibition at 125 g /ha measured after 27 days; assay type: functional, organism-based
[39] = tested on: Echinochloa oryzicola; assay: Herbicidal activity against Echinochloa oryzicola grown in water-drained pot under greenhouse condition assessed as growth inhibition at 125 g /ha measured after 13 days; assay type: functional, organism-based
[40] = tested on: Echinochloa oryzicola; assay: Herbicidal activity against Echinochloa oryzicola under greenhouse condition assessed as growth inhibition at 125 g /ha measured after 13 days; assay type: functional, organism-based
[41] = tested on: Echinochloa oryzicola; assay: Herbicidal activity against Echinochloa oryzicola grown in water-drained pot under greenhouse condition assessed as time duration of residual effect at 125 g /ha; assay type: functional
[42] = tested on: Echinochloa oryzicola; assay: Herbicidal activity against Echinochloa oryzicola under greenhouse condition assessed as growth inhibition at 125 g /ha measured after 6 days; assay type: functional, organism-based
[43] = tested on: Echinochloa oryzicola; assay: Herbicidal activity against Echinochloa oryzicola under greenhouse condition assessed as growth inhibition at 500 g /ha measured after 6 days; assay type: functional, organism-based
[44] = tested on: Echinochloa oryzicola; assay: Herbicidal activity against Echinochloa oryzicola under greenhouse condition assessed as growth inhibition at 125 g /ha measured after 33 days; assay type: functional, organism-based
[45] = tested on: Echinochloa oryzicola; assay: Herbicidal activity against Echinochloa oryzicola grown in water-drained pot under greenhouse condition assessed as growth inhibition at 125 g /ha measured after 20 days; assay type: functional, organism-based
[46] = tested on: Echinochloa oryzicola; assay: Herbicidal activity against Echinochloa oryzicola under greenhouse condition assessed as growth inhibition at 125 g /ha measured after 42 days; assay type: functional, organism-based
[47] = tested on: Echinochloa oryzicola; assay: Herbicidal activity against Echinochloa oryzicola under greenhouse condition assessed as time duration of residual effect at 125 g /ha; assay type: functional
[48] = tested on: Echinochloa oryzicola; assay: Herbicidal activity against Echinochloa oryzicola under greenhouse condition assessed as growth inhibition at 500 g /ha measured after 13 days; assay type: functional, organism-based
[49] = tested on: Echinochloa oryzicola; assay: Herbicidal activity against Echinochloa oryzicola grown in water-drained pot under greenhouse condition assessed as growth inhibition at 125 g /ha measured after 42 days; assay type: functional, organism-based
[50] = tested on: Echinochloa oryzicola; assay: Herbicidal activity against Echinochloa oryzicola grown in water-drained pot under greenhouse condition assessed as growth inhibition at 500 g /ha measured after 42 days; assay type: functional, organism-based
[51] = tested on: Echinochloa oryzicola; assay: Herbicidal activity against Echinochloa oryzicola grown in water-drained pot under greenhouse condition assessed as growth inhibition at 500 g /ha measured after 27 days; assay type: functional, organism-based
[52] = tested on: Echinochloa oryzicola; assay: Herbicidal activity against Echinochloa oryzicola under greenhouse condition assessed as growth inhibition at 500 g /ha measured after 27 days; assay type: functional, organism-based
[53] = tested on: Echinochloa oryzicola; assay: Herbicidal activity against Echinochloa oryzicola grown in water-drained pot under greenhouse condition assessed as time duration of residual effect at 500 g /ha; assay type: functional
[54] = tested on: Echinochloa oryzicola; assay: Herbicidal activity against Echinochloa oryzicola grown in water-drained pot under greenhouse condition assessed as growth inhibition at 500 g /ha measured after 13 days; assay type: functional, organism-based
[55] = tested on: Echinochloa oryzicola; assay: Herbicidal activity against Echinochloa oryzicola under greenhouse condition assessed as growth inhibition at 125 g /ha measured after 27 days; assay type: functional, organism-based
[56] = tested on: Echinochloa oryzicola; assay: Herbicidal activity against Echinochloa oryzicola grown in water-drained pot under greenhouse condition assessed as growth inhibition at 500 g /ha measured after 33 days; assay type: functional, organism-based
[57] = tested on: Oryza sativa; assay: Phytotoxicity against two-leaf stage Oryza sativa cv. Nihonbare (rice) planted 3 cm depth measured after […]; assay type: organism-based; settings: in vivo
[58] = tested on: Sagittaria pygmaea; assay: Herbicide activity against Sagittaria pygmaea under greenhouse condition compound treated at 0.5 leaf-stage measured after 14 to 20 days; assay type: functional
[59] = tested on: Oryza sativa; assay: Phytotoxicity against two-leaf stage Oryza sativa cv. Nihonbare (rice) planted 1 cm depth measured after […]; assay type: organism-based; settings: in vivo
[60] = tested on: Schoenoplectiella juncoides; assay: Herbicide activity against Schoenoplectiella juncoides under greenhouse condition compound treated at emergence-stage measured after 14 to 20 days; assay type: functional
[61] = tested on: Echinochloa oryzicola; assay: Herbicide activity against Echinochloa oryzicola under greenhouse condition compound treated at 2 leaf-stage measured after 14 to 20 days; assay type: functional
[62] = tested on: Echinochloa oryzicola; assay: Pre-emergence herbicide activity against Echinochloa oryzicola under greenhouse condition measured after 14 to 20 days; assay type: functional

CN(C(=O)COc1nc2ccccc2s1)c1ccccc1 [MEFENACET]
growth inhibition (GI) [1]: Active | growth inhibition (GI) [2]: Active | growth inhibition (GI) [3]: Active | growth inhibition (GI) [4]: Active | growth inhibition (GI) [5]: Active | growth inhibition (GI) [6]: inactive | growth inhibition (GI) [7]: inactive | growth inhibition (GI) [8]: inactive | growth inhibition (GI) [9]: Active | Time [10]: 13 days | growth inhibition (GI) [11]: Active | growth inhibition (GI) [12]: Active | growth inhibition (GI) [13]: Active | growth inhibition (GI) [14]: Active | Time [15]: 33 days | growth inhibition (GI) [16]: Active | growth inhibition (GI) [17]: Active | growth inhibition (GI) [18]: Active | growth inhibition (GI) [19]: inactive | growth inhibition (GI) [20]: inactive | growth inhibition (GI) [21]: inactive | Time [22]: 33 days | growth inhibition (GI) [23]: inactive | growth inhibition (GI) [24]: Active | growth inhibition (GI) [25]: Active | growth inhibition (GI) [26]: Active | Time [27]: 13 days | growth inhibition (GI) [28]: Active

CCCOCCN(C(=O)CCl)c1c(CC)cccc1CC [PRETILACHLOR]
growth inhibition (GI) [29]: Active | growth inhibition (GI) [30]: Active | growth inhibition (GI) [31]: inactive | growth inhibition (GI) [32]: Active | growth inhibition (GI) [33]: inactive | Time [34]: 27 days | growth inhibition (GI) [35]: Active | growth inhibition (GI) [36]: Active | growth inhibition (GI) [37]: Active | growth inhibition (GI) [38]: inactive | growth inhibition (GI) [39]: Active | growth inhibition (GI) [40]: Active | Time [41]: 6 days | growth inhibition (GI) [42]: Active | growth inhibition (GI) [43]: Active | growth inhibition (GI) [44]: inactive | growth inhibition (GI) [45]: inactive | growth inhibition (GI) [46]: inactive | Time [47]: 13 days | growth inhibition (GI) [48]: Active | growth inhibition (GI) [49]: inactive | growth inhibition (GI) [50]: inactive | growth inhibition (GI) [51]: Active | growth inhibition (GI) [52]: Active | Time [53]: 16 days | growth inhibition (GI) [54]: Active | growth inhibition (GI) [55]: inactive | growth inhibition (GI) [56]: Active

CC1=C(c2ccccc2)C(=O)N(C(C)(C)c2nc(C(C)(C)C)cs2)C1
MTD [57]: 10 g/acre | MED [58]: 80 g/acre | MTD [59]: 5 g/acre | MED [60]: 80 g/acre | MED [61]: 5 g/acre | MED [62]: 5 g/acre
